# In patent US20240132511A1, “TREATMENTS OF PRADER-WILLI SYNDROME” (Neuren Pharmaceuticals Limited, priority 2021, published 2024):
# What was measured:
# Magel2-null mice [1] = assay: Sniffing test of social interaction; assay type: in vivo, mouse; set-up: key: **** = p < 0.0001; ns = not significant
# Source text: (§1) The mouse locus 7qB4/B5 (syntenic with the Prader-Willi region at chromosome position 15q11-q13 in humans) encompasses the cluster of paternally-expressed imprinted genes Magel2, Ndn, Mkrn3, and Peg12. As maternal imprinting silences the Magel2 allele, only the paternally inherited Magel2 allele is expressed. Heterozygous females were bred with wild-type males (or C57BL/6J inbred males) to maintain the line; as the resulting offspring will have no abnormal phenotype. To obtain “Magel2-null” offspring (both maternal and paternal Magel2 alleles are non-functional), wild-type females are bred with heterozygous males; allowing maternal transmission of the imprinted/silenced wild-type allele and paternal transmission of the Magel2-lacZ (null) allele. Magel2-null mice have disrupted circadian rhythm and metabolism, total activity, food consumption, weight before weaning, and fertility in both sexes, as well as increased adiposity after weaning and altered behavior. Magel2-null mice on this C57BL/6J genetic background recapitulate Prader-Willi syndrome. Because the genetic mutation in the Magel2-null animals is the same as the mutation in human beings, studies in Magel2-null mice are reasonably predictive of effects of compounds in human beings.
# (§2) In vivo experiments were conducted in C57BL/6-Magel2tm1Stw/J (Magel2-null) mice at age P60 and their wild-type littermates during the light phase (littermates that were wild-type for Magel2 were used as controls). Ten mice per treatment group were used for studies 1 and 2, and six mice per group for study 3. In study 1: C57BL/6-Magel2tm1Stw/J (Magel2-null) mice were assessed on behavioral assays. Study 2 tested the efficacy of cG-2-AllylP in treating obesity and insulin levels in Magel2-null mice. Study 3 tested the IGF-1 level in Magel2-null mice. Because human beings have the same genetic abnormality, studies of Magel2-null mice are reasonably predictive of effects of compounds of Formulas I, II, III and IV in human beings with Prader-Willi Syndrome.
# (§3) Testing was performed during the light phase of the circadian cycle, with the order of testing being determined by the principle of conducting the most stressful tests last. Assays were designed to reproduce and expand on the original behavioral characterization of Magel2-null mice. Magel2-null and wild-type control mice were dosed once daily for 6 weeks prior to testing and tested 30 minutes following a dose of cG-2-AllylP (NNZ2591). Study groups and the treatment matrix are described in Table 2 below.
# People with Prader-Willi Syndrome show deficits in social behavior compared with people without Prader-Willi Syndrome. Two tests were carried out to assess the social behavior deficits of Magel2-null mice.
# The sniffing test of social interaction measures the number of sniffing events.
# Magel2-null mice [2] = assay: Insulin levels in female Magel2-null mice; assay type: in vivo, mouse; set-up: key to Insulin, significance: **** = p < 0.0001; ns = not significant
# Method: as §2, §3
# (§4) Prader-Willi Syndrome is associated with metabolic and hormonal abnormalities in humans. Magel2-null mice recapitulate some of the metabolic and hormonal aspects of humans with Prader-Willi Syndrome. Experiments were conducted to determine if cG-2-AllylP could have a normalizing effect in metabolic and hormonal aspects.
# (§5) Because female Magel2-null mice present a significant increase in body weight compared with their littermate wild-type controls, female Magel2-null mice were used for this study.
# Insulin was measured for each group.
# Magel2-null mice [3] = assay: Elevated Plus Maze (time in open arms); assay type: in vivo, mouse; set-up: key: **** = p < 0.0001; ns = not significant
# Source text: as §1, §2, §3
# The Elevated Plus Maze test is used to assess anxiety related behaviors. Normal mice show a preference for being in closed arms over open arms.
# [4] = Delivery of cG-2-AllylP into CSF, blood and brain after single oral gavage dose; assay type: in vivo, male Sprague Dawley rats; conditions: for Mean Test Article Exposure, Blood / Mean Test Article Exposure, CSF / Mean Test Article Exposure, Brain: rat
# Method: In an in vivo study, male Sprague Dawley rats (aged 14 weeks) received a single dose of cG-2-AllylP, either 100 mg/kg or 200 mg/kg by oral gavage. Cerebrospinal fluid (CSF) and whole blood were collected at 1.5 and 4 hours post-dose, and brain tissue was collected at 4 hours post-dose to evaluate cG-2-AllylP exposure.
# Magel2-null mice [5] = assay: Open Field hypoactivity (distance travelled, time spent active); assay type: in vivo, mouse; set-up: key: **** = p < 0.0001; ns = not significant
# Source text: as §1, §2, §3
# To evaluate whether cG-2-AllylP is effective to treat the hypoactivity in PWS, Open Field studies were carried out.
# The relative distance travelled or time spent active is shown on the vertical axis, and the mean of each treatment group is shown on the horizontal axis. Wild-type (WT) mice treated with vehicle alone (left column) were considered to travel 100% or to have 100% activity.
# Magel2-null mice [6] = assay: Fat mass in female Magel2-null mice; assay type: in vivo, mouse; set-up: key: **** = p < 0.0001; ns = not significant
# Method: as §2, §3, §4, §5
# [7] = Magel2-null + NNZ2591 (100 mg/kg) vs. Magel2-null + NNZ2591 (200 mg/kg)
# [8] = Magel2-null + Vehicle vs. Magel2-null + NNZ2591 (100 mg/kg)
# [9] = Magel2-null + Vehicle vs. Magel2-null + NNZ2591 (200 mg/kg)
# [10] = WT + NNZ2591 (100 mg/kg) vs. Magel2-null + NNZ2591 (100 mg/kg)
# [11] = WT + NNZ2591 (200 mg/kg) vs. Magel2-null + NNZ2591 (200 mg/kg)
# [12] = WT + Vehicle vs. WT + NNZ2591 (200 mg/kg)
# [13] = Magel2-null + NNZ2591 200 mg/kg
# [14] = single oral dose 100 mg/kg, 1.5 h post-dose
# [15] = single oral dose 100 mg/kg, 4 h post-dose
# [16] = single oral dose 200 mg/kg, 1.5 h post-dose
# [17] = single oral dose 200 mg/kg, 4 h post-dose
# [18] = WT + Vehicle vs. WT + NNZ2591 (100 mg/kg)
smiles,measurement,setting,value
"C=CCC12CCCN1C(=O)CNC2=O [cG-2-AllylP, (8aS)-Allyl-hexahydropyrrolo[1,2-a]pyrazine-1,4-dione]","Social interaction, Sidak's multiple comparisons test, Summary",Magel2-null mice [1]; [7],ns
same,"Social interaction, Sidak's multiple comparisons test, Summary",Magel2-null mice [1]; [8],**** (**** = p < 0.0001)
same,"Social interaction, Sidak's multiple comparisons test, Summary",Magel2-null mice [1]; [9],**** (**** = p < 0.0001)
same,"Social interaction, Sidak's multiple comparisons test, Summary",Magel2-null mice [1]; [10],ns
same,"Social interaction, Sidak's multiple comparisons test, Summary",Magel2-null mice [1]; [11],ns
same,"Social interaction, Sidak's multiple comparisons test, Summary",Magel2-null mice [1]; WT + Vehicle v. WT + NNZ2591 (100 mg/kg),ns
same,"Social interaction, Sidak's multiple comparisons test, Summary",Magel2-null mice [1]; [12],ns
same,melting point,,106 to 109 °C
same,Insulin (mean ± SEM),Magel2-null mice [2]; Magel2-null + NNZ2591 100 mg/kg,143 pM
same,Insulin (mean ± SEM),Magel2-null mice [2]; [13],119 pM
same,"Insulin, significance",Magel2-null mice [2]; [13],(ns)
same,Insulin (mean ± SEM),Magel2-null mice [2]; WT + NNZ2591 100 mg/kg,112 pM
same,Insulin (mean ± SEM),Magel2-null mice [2]; WT + NNZ2591 200 mg/kg,115 pM
same,"Elevated plus maze (time in open arm), Sidak's multiple comparisons test, Summary",Magel2-null mice [3]; [8],**** (**** = p < 0.0001)
same,"Elevated plus maze (time in open arm), Sidak's multiple comparisons test, Summary",Magel2-null mice [3]; [9],**** (**** = p < 0.0001)
same,"Elevated plus maze (time in open arm), Sidak's multiple comparisons test, Summary",Magel2-null mice [3]; [10],ns
same,"Elevated plus maze (time in open arm), Sidak's multiple comparisons test, Summary",Magel2-null mice [3]; [11],ns
same,"Elevated plus maze (time in open arm), Sidak's multiple comparisons test, Summary",Magel2-null mice [3]; WT + Vehicle vs WT + NNZ2591 (100 mg/kg),ns
same,"Elevated plus maze (time in open arm), Sidak's multiple comparisons test, Summary",Magel2-null mice [3]; [12],ns
same,Concentration in blood versus brain tissue,[4]; 4 hours post-dose,approximately equivalent
same,Dose dependence of concentration,"[4]; blood and CSF at 1.5 hours, blood, CSF and brain at 4 hours, single oral dose 100 vs 200 mg/kg",approximately proportional increase
same,"Mean Test Article Exposure, Blood",[4]; [14],58.5 µg/mL
same,"Mean Test Article Exposure, CSF",[4]; [14],40.4 µg/mL
same,"Mean Test Article Exposure, Blood",[4]; [15],15.6 µg/mL
same,"Mean Test Article Exposure, Brain",[4]; [15],22.6 µg/mL
same,"Mean Test Article Exposure, CSF",[4]; [15],11.0 µg/mL
same,"Mean Test Article Exposure, Blood",[4]; [16],116.0 µg/mL
same,"Mean Test Article Exposure, CSF",[4]; [16],82.2 µg/mL
same,"Mean Test Article Exposure, Blood",[4]; [17],34.2 µg/mL
same,"Mean Test Article Exposure, Brain",[4]; [17],37.0 µg/mL
same,"Mean Test Article Exposure, CSF",[4]; [17],24.7 µg/mL
same,"Open Field (Hypoactivity) - Motility, Sidak's multiple comparisons test, Summary",Magel2-null mice [5]; [7],ns
same,"Open Field (Hypoactivity) - Distance travelled, Sidak's multiple comparison test, Summary",Magel2-null mice [5]; [8],**** (**** = p < 0.0001)
same,"Open Field (Hypoactivity) - Distance travelled, Sidak's multiple comparison test, Summary",Magel2-null mice [5]; [9],**** (**** = p < 0.0001)
same,"Open Field (Hypoactivity) - Motility, Sidak's multiple comparisons test, Summary",Magel2-null mice [5]; [9],**** (**** = p < 0.0001)
same,"Open Field (Hypoactivity) - Motility, Sidak's multiple comparisons test, Summary",Magel2-null mice [5]; Magel2-null + Vehicle vs. WT + NNZ2591 (100 mg/kg),**** (**** = p < 0.0001)
same,"Open Field (Hypoactivity) - Distance travelled, Sidak's multiple comparison test, Summary",Magel2-null mice [5]; [10],ns
same,"Open Field (Hypoactivity) - Motility, Sidak's multiple comparisons test, Summary",Magel2-null mice [5]; [10],ns
same,"Open Field (Hypoactivity) - Distance travelled, Sidak's multiple comparison test, Summary",Magel2-null mice [5]; WT + NNZ2591 (100 mg/kg) vs. Magel2-null + NNZ2591 (200 mg/kg),ns
same,"Open Field (Hypoactivity) - Distance travelled, Sidak's multiple comparison test, Summary",Magel2-null mice [5]; [11],ns
same,"Open Field (Hypoactivity) - Motility, Sidak's multiple comparisons test, Summary",Magel2-null mice [5]; [11],ns
same,"Open Field (Hypoactivity) - Distance travelled, Sidak's multiple comparison test, Summary",Magel2-null mice [5]; [18],ns
same,"Open Field (Hypoactivity) - Motility, Sidak's multiple comparisons test, Summary",Magel2-null mice [5]; [18],ns
same,"Open Field (Hypoactivity) - Distance travelled, Sidak's multiple comparison test, Summary",Magel2-null mice [5]; [12],ns
same,"Open Field (Hypoactivity) - Motility, Sidak's multiple comparisons test, Summary",Magel2-null mice [5]; [12],ns
same,"Effect on fat mass, Sidak's multiple comparisons test, Summary",Magel2-null mice [6]; [8],ns
same,"Effect on fat mass, Sidak's multiple comparisons test, Summary",Magel2-null mice [6]; [9],**** (**** = p < 0.0001)
same,"Effect on fat mass, Sidak's multiple comparisons test, Summary",Magel2-null mice [6]; [11],ns
same,"Effect on fat mass, Sidak's multiple comparisons test, Summary",Magel2-null mice [6]; [18],ns
same,"Effect on fat mass, Sidak's multiple comparisons test, Summary",Magel2-null mice [6]; [12],ns
